Test results reported in US8101570B2, “Single branch heparin-binding growth factor analogs” (BioSurface Engineering Technologies, Inc., priority 2005, dated 2012).
Read-outs that look alike come from different tables or passages of the source. Where a SMILES comes first, the peptide text is derived from it. Bridges are numbered along the chain shown (N, C = ends). Roman numbers before positions name the chains, in order. Where no end group is shown, it is not given here. [ ]: non-standard residue; d: D form. Hx = not defined here; Ahx = NCCCCCC(=O)O

Assays:
human PDGF-R-alpha = biological target: T1, human PDGF-R-alpha (Homo sapiens, UniProt P16234); test: Surface plasmon resonance (BIAcore) binding to immobilized soluble PDGF receptor alpha; conditions: SPR, 1:1 fit; for kon: read-out: Ka (association rate constant); for koff: read-out: Kd (dissociation rate constant)
T1 construct: Soluble PDGF receptor, recombinant chimera of human PDGF-R-alpha; purchased R&D Systems
T1 sequence (P16234 24-528 limits assumed): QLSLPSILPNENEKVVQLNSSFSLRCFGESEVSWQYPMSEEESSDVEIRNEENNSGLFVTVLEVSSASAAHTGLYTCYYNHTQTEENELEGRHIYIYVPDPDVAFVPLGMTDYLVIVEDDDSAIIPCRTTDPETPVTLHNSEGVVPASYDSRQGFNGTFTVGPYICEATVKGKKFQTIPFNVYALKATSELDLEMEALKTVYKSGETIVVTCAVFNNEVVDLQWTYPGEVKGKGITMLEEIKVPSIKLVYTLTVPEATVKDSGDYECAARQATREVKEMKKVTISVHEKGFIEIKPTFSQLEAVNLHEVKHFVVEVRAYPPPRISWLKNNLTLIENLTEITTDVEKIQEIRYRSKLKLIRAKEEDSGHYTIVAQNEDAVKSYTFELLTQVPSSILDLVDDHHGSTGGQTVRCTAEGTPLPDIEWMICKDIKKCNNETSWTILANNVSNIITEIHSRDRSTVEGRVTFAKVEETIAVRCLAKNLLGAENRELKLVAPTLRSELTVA
Experimental: (§1) Surface Plasmon Resonance (SPR) Analysis. Real-time biomolecular interactions were analyzed with a BIAcore 2000 system (Biacore Inc., Piscataway, N.J.). Soluble PDGF receptor, recombinant chimera of human PDGF-R-alpha and PSGF-R-beta (R &D Systems, Minneapolis, Minn.), was immobilized on research grade CM5 chips (Biacore Inc., Piscataway, N.J.). Following activation with EDC/NHS, the receptors were immobilized on activated CM5 chips. To obtain kinetic data, different concentrations of analytes in HBS-EP buffer were injected over the sensor chip at a flow rate of 50 μl/min. Peptide binding was measured in resonance units (RU). At the end of each sample injection (120 s) buffer was passed over the sensor surface to monitor the dissociation phase. Reference responses from blank flow cells were subtracted from receptor-containing flow cells for each analyte injection and the kinetic parameters for each interaction were determined by globally fitting the experimental data to a 1:1 interaction with BIAEVALUATION software (Biacore Inc., Piscataway, N.J.). The association rate constant and the dissociation rate constant (ka and kd, respectively), and the equilibrium dissociation constant (KD) are presented in the Table 3 for the receptors and PBA2-1.
as §1, with “4” for “3”

PDGF R Beta = biological target: T2, PDGF R Beta (Homo sapiens, UniProt P09619); test: Surface plasmon resonance (BIAcore) binding to immobilized soluble PDGF receptor beta; conditions: for kon / koff: SPR, 1:1 fit; for kon: read-out: Ka (association rate constant); for koff: read-out: Kd (dissociation rate constant)
T2 construct: Soluble PDGF receptor, recombinant chimera of human PDGF-R-alpha and PSGF-R-beta; purchased R&D Systems
T2 sequence (P09619 33-532 limits assumed): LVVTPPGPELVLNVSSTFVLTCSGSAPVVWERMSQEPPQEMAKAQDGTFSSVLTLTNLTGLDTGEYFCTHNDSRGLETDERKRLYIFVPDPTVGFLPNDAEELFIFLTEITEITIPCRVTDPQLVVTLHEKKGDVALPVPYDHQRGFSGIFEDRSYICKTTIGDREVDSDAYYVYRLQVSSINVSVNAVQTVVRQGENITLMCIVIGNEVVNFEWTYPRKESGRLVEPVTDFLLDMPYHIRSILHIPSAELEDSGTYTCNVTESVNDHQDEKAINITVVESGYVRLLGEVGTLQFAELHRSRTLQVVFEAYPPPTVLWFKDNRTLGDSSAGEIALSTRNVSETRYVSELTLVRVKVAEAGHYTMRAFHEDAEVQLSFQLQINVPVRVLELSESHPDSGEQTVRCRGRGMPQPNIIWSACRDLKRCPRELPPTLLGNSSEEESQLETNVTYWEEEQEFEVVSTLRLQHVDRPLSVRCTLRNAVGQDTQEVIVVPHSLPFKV
Experimental: as §1
as §1, with “4” for “3”

C2C12 cells [1] = test: Alkaline phosphatase assay in C2C12 cells in the presence of recombinant BMP-7; format: cell-based, mouse; conditions: serum low medium containing BMP-7, FIG. 8
Experimental: This peptide was evaluated using C2C12 cells and in the presence of recombinant BMP-7 and using alkaline phosphatase production as an endpoint. Alkaline phosphatase assays were performed using mouse the pluripotent cell lines C2C12. Cells were plated in 96-well (1×10^4/well) plates and allowed 24 hours to attach. The medium was then replaced with a serum low medium containing BMP-7 and/or B7A1-6. After several days, cells were rinsed, lysed, and alkaline phosphatase activity measured using p-nitrophenylphosphate as substrate.

Sup-T1 cells = test: Sup-T1 cell proliferation; format: cell-based; conditions: low serum, 3 days, FIG. 2
Experimental: Cell proliferation. Sup-T1 cells were obtained from the American Type Culture Collection (Manassas, Va.) and were grown in culture. To monitor the effect of SD1-1 on cell proliferation, Sup-T1 cells were seeded at 100,000 cells per well of a 96-well plate and allowed to attach. The medium was changed to one containing low serum plus SD1-1 and the cells incubated for 3 days after which time the relative cell number was determined using a commercially available kit Referring now to FIG. 2, data in the graph below is reported as the average±SD. Commercially-available recombinant human SDF-1 (diamond) was used as a reference and positive control for comparison of proliferation stimulated by […].

C2C12 cells [2] = test: C2C12 cell migration, trans-well insert assay; format: cell-based; conditions: 8 μm pore membrane coated with collagen, FIG. 3
Experimental: Cell migration. SD1-1 was evaluated for its ability to induce migration of C2C12 cells using a commercially-available cell migration assay. C2C12 cells were seeded on a trans-well insert containing an 8 μm pore size polycarbonate membrane coated with a thin layer of polymerized collagen. The inserts were placed into wells with medium containing SD1-1. Cells that migrated through the membrane were found on the bottom of the insert membrane. These cells were stained, and the stain extracted and detected on a standard microplate reader (560 nm). Referring now to FIG. 3, the results of cell migration in response to the SD1-1 peptide as compared to SDF-1 peptide or control are illustrated. Data is reported as the average±SD.

M-NSF-60 cells = test: Augmentation of growth of M-NSF-60 cells in the presence of rhGCSF; format: cell-based; conditions: 0.01 ng rhGCSF, FIG. 9
Experimental: This peptide was evaluated for augmentation of growth using M-NSF-60 cells in the presence of 0.01 ng rhGCSF.

CC[C@H](C)[C@H](NC(=O)[C@H](CCCNC(=N)N)NC(=O)[C@H](CCC(=O)O)NC(=O)[C@H](CC(C)C)NC(=O)[C@H](CCCCN)NC(=O)[C@H](CCCNC(=N)N)NC(=O)[C@H](CCCCN)NC(=O)[C@H](CCCNC(=N)N)NC(=O)CCCCCNC(=O)CCCCCNC(=O)CCCCCNC(=O)[C@H](CCCCNC(=O)[C@H](CCCCN)NC(=O)[C@H](CCCCN)NC(=O)[C@H](CCCNC(=N)N)NC(=O)[C@@H](NC(=O)[C@@H](NC(=O)[C@H](CCC(=O)O)NC(=O)[C@@H](NC(=O)[C@H](CCCCN)NC(=O)[C@H](CCCNC(=N)N)NC(=O)[C@@H](N)C(C)C)[C@@H](C)CC)[C@@H](C)CC)C(C)C)NC(=O)[C@H](CCCCN)NC(=O)[C@H](CCCCN)NC(=O)[C@H](CCCNC(=N)N)NC(=O)[C@@H](NC(=O)[C@@H](NC(=O)[C@H](CCC(=O)O)NC(=O)[C@@H](NC(=O)[C@H](CCCCN)NC(=O)[C@H](CCCNC(=N)N)NC(=O)[C@@H](N)C(C)C)[C@@H](C)CC)[C@@H](C)CC)C(C)C)C(=O)N[C@@H](C)C(=O)N[C@@H](CCCNC(=N)N)C(N)=O [PBA2-1, VRKIEIVRKKK(VRKIEIVRKK)HxHxHxRKRKLERIAR-amide] (I: H-VRKIEIVRKKK[Ahx][Ahx][Ahx]RKRKLERIAR-NH2 / II: H-VRKIEIVRKK; amide I:11-II:C)
kon (human PDGF-R-alpha; Table 3, PDGF R Alpha): 198000 M⁻¹ s⁻¹ | koff (human PDGF-R-alpha; Table 3, PDGF R Alpha): 0.00336 s⁻¹ | kon (human PDGF-R-alpha; Table 4, Alpha): 414000 M⁻¹ s⁻¹ | koff (human PDGF-R-alpha; Table 4, Alpha): 0.00965 s⁻¹ | Kd (PDGF R Beta): 20.2 nM | kon (PDGF R Beta; Table 3, PDGF R Beta): 133000 M⁻¹ s⁻¹ | koff (PDGF R Beta; Table 3, PDGF R Beta): 0.00296 s⁻¹ | kon (PDGF R Beta; Table 4, Beta): 353000 M⁻¹ s⁻¹ | koff (PDGF R Beta; Table 4, Beta): 0.00714 s⁻¹

AISVLYFDDSSNVILKKK(AISVLYFDDSSNVILKK)HxHxHxRKRKLERIAR-amide (chain 1 AISVLYFDDSSNVILKKK-{Hx-Hx-Hx-Arg-Lys-Arg-Lys-Leu-Glu-Arg-Ile-Ala-Arg-NH2}; reading uncertain; also: chain 2 C-terminus branched onto side chain of Lys18 of chain 1, bond at chain A 18 to a chain's C-terminus) [Example B7A1-6]
effect on BMP-7 activity (alkaline phosphatase activity) (C2C12 cells [1]): dose-dependant suppression of the activity of BMP-7

KPVSLSYRAPARFFESHVAK(KPVSLSYRAPARFFESHVA)HxHxHxRKRKLERIAR-amide [SD1-1]
cell proliferation (relative cell number) (Sup-T1 cells): concentration dependent induction of cell proliferation | cell migration (C2C12 cells [2]): induced cell migration

SDF-1: Commercially-available recombinant human SDF-1 used as a reference and positive control [reference compound]
cell proliferation (relative cell number) (Sup-T1 cells): concentration dependent induction of cell proliferation | cell migration (C2C12 cells [2]): induced cell migration

SFLLKALEQVRKIQYK(SFLLKALEQVRKIQY)HxHxHxRKRKLERIAR-amide (chain 1 SFLLKALEQVRKIQYK-{Hx-Hx-Hx-Arg-Lys-Arg-Lys-Leu-Glu-Arg-Ile-Ala-Arg-NH2}; reading uncertain; also: chain 2 C-terminus branched onto side chain of Lys16 of chain 1, bond at chain A 16 to a chain's C-terminus) [GCSF1]
augmentation of cellular growth (M-NSF-60 cells): augmented cellular growth
